In ChEMBL document CHEMBL1201862, “PubChem BioAssay data set” (2004):
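These data come from cells grown in 96-well plates and exposed to compound for 48 hours at five concentrations. Abbreviation: GI50, concentration required for 50% inhibition of growth.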 Calls of active or inactive are those of the source. Cut-off read from the data, not from the text of the source: active = GI50 up to about 1.1 µM and inactive = higher.

How the values were obtained:
Experiment in all cases: inhibition of tumour cell growth, NCI panel, 48 h
[1] = tested on: A549
[2] = tested on: K562
[3] = tested on: SK-OV-3
[4] = tested on: RXF 393
[5] = tested on: HCC 2998
[6] = tested on: IGROV-1
[7] = tested on: UO-31
[8] = tested on: SK-MEL-5
[9] = tested on: SNB-75
[10] = tested on: M14
[11] = tested on: MOLT-4
[12] = tested on: COLO 205
[13] = tested on: MDA-MB-231
[14] = tested on: DU-145
[15] = tested on: NCI-H460
[16] = tested on: OVCAR-4
[17] = tested on: NCI-H226
[18] = tested on: UACC-62
[19] = tested on: HL-60
[20] = tested on: OVCAR-3
[21] = tested on: NCI-H23
[22] = tested on: NCI-H522
[23] = tested on: SF-295
[24] = tested on: HCT-15
[25] = tested on: TK-10
[26] = tested on: HCT-116
[27] = tested on: SR
[28] = tested on: SNB-19
[29] = tested on: PC-3
[30] = tested on: SF-539
[31] = tested on: A498
[32] = tested on: U-251
[33] = tested on: Malme-3M
[34] = tested on: HT-29
[35] = tested on: SN12C
[36] = tested on: SK-MEL-2
[37] = tested on: T47D
[38] = tested on: SK-MEL-28
[39] = tested on: KM12
[40] = tested on: NCI/ADR-RES
[41] = tested on: SW-620
[42] = tested on: ACHN
[43] = tested on: Hs-578T
[44] = tested on: EKVX
[45] = tested on: CAKI-1
[46] = tested on: HOP-92
[47] = tested on: MDA-N
[48] = tested on: HOP-62
[49] = tested on: MDA-MB-435
[50] = tested on: UACC-257
[51] = tested on: CCRF-CEM
[52] = tested on: LOX IMVI
[53] = tested on: MCF7
[54] = tested on: RPMI-8226
[55] = tested on: 786-0
[56] = tested on: BT-549
[57] = tested on: SF-268
[58] = tested on: OVCAR-5
[59] = tested on: OVCAR-8

COc1cccc(C2CC(C)(O)Oc3cc4c(cc32)OCO4)c1O (stereo not drawn)
GI50 [1]: 34.4 µM (inactive) | GI50 [2]: 9.68 µM (inactive) | GI50 [3]: 28.5 µM (inactive) | GI50 [4]: 26.3 µM (inactive) | GI50 [5]: 25.6 µM (inactive) | GI50 [6]: 27.9 µM (inactive) | GI50 [7]: 35.6 µM (inactive) | GI50 [8]: 9.31 µM (inactive) | GI50 [9]: 14.2 µM (inactive) | GI50 [10]: 13.5 µM (inactive) | GI50 [11]: 37.4 µM (inactive) | GI50 [12]: 19.5 µM (inactive) | GI50 [13]: 18 µM (inactive) | GI50 [14]: 22.6 µM (inactive) | GI50 [15]: 32.6 µM (inactive) | GI50 [16]: 38.8 µM (inactive) | GI50 [17]: 17.4 µM (inactive) | GI50 [18]: 15.7 µM (inactive) | GI50 [19]: 31 µM (inactive) | GI50 [20]: 15.6 µM (inactive) | GI50 [21]: 30.4 µM (inactive) | GI50 [22]: 20.1 µM (inactive) | GI50 [23]: 19.4 µM (inactive) | GI50 [24]: 21.7 µM | GI50 [25]: 39.7 µM (inactive) | GI50 [26]: 10.7 µM (inactive) | GI50 [27]: 4.63 µM (inactive) | GI50 [28]: 31 µM (inactive) | GI50 [29]: 27.2 µM (inactive) | GI50 [30]: 17.4 µM (inactive) | GI50 [31]: 41.7 µM (inactive) | GI50 [32]: 24.2 µM (inactive) | GI50 [33]: 29.2 µM (inactive) | GI50 [34]: 21.4 µM (inactive) | GI50 [35]: 28.7 µM (inactive) | GI50 [36]: 22.8 µM (inactive) | GI50 [37]: 64.4 µM (inactive) | GI50 [38]: 35.2 µM (inactive) | GI50 [39]: 12.5 µM (inactive) | GI50 [40]: 19.7 µM (inactive) | GI50 [41]: 22.8 µM (inactive) | GI50 [42]: 31.8 µM (inactive) | GI50 [43]: 15.4 µM (inactive) | GI50 [44]: 34.6 µM (inactive) | GI50 [45]: 39.4 µM (inactive) | GI50 [46]: 22.4 µM (inactive) | GI50 [47]: 2.72 µM (inactive) | GI50 [48]: 27.4 µM (inactive) | GI50 [49]: 2.78 µM (inactive) | GI50 [50]: 39.4 µM (inactive) | GI50 [51]: 13.3 µM (inactive) | GI50 [52]: 25.3 µM (inactive) | GI50 [53]: 11.4 µM (inactive) | GI50 [54]: 32.5 µM (inactive) | GI50 [55]: 24.8 µM (inactive) | GI50 [56]: 15.3 µM (inactive) | GI50 [57]: 31 µM (inactive) | GI50 [58]: 27 µM (inactive) | GI50 [59]: 25.7 µM (inactive)

NC(=O)c1cccc(/N=c2\oc3ccc(Br)cc3cc2-c2nc3ccccc3[nH]2)c1
GI50 [1]: 13.1 µM (inactive) | GI50 [2]: 18.8 µM (inactive) | GI50 [3]: 16.4 µM (inactive) | GI50 [4]: 22 µM (inactive) | GI50 [5]: 15.3 µM (inactive) | GI50 [6]: 17.9 µM (inactive) | GI50 [7]: 7.76 µM (inactive) | GI50 [8]: 1.81 µM (inactive) | GI50 [9]: 1.47 µM (inactive) | GI50 [10]: 15.7 µM (inactive) | GI50 [11]: 12.5 µM (inactive) | GI50 [12]: 14.6 µM (inactive) | GI50 [13]: 7.55 µM (inactive) | GI50 [14]: 15.5 µM (inactive) | GI50 [15]: 15.5 µM (inactive) | GI50 [16]: 18.8 µM (inactive) | GI50 [17]: 0.075 µM (active) | GI50 [18]: 14.4 µM (inactive) | GI50 [19]: 18.1 µM (inactive) | GI50 [20]: 16.2 µM (inactive) | GI50 [21]: 16 µM (inactive) | GI50 [22]: 22.1 µM (inactive) | GI50 [23]: 15.8 µM (inactive) | GI50 [24]: 12.7 µM | GI50 [25]: 17 µM (inactive) | GI50 [26]: 16.4 µM (inactive) | GI50 [27]: 5.73 µM (inactive) | GI50 [28]: 14.8 µM (inactive) | GI50 [29]: 14.3 µM (inactive) | GI50 [30]: 2.49 µM (inactive) | GI50 [31]: 18.4 µM (inactive) | GI50 [32]: 13.2 µM (inactive) | GI50 [33]: 22.5 µM (inactive) | GI50 [34]: 15.8 µM (inactive) | GI50 [35]: 17.4 µM (inactive) | GI50 [36]: 19.9 µM (inactive) | GI50 [37]: 10 µM (inactive) | GI50 [38]: > 100 µM (inactive) | GI50 [39]: 18.5 µM (inactive) | GI50 [40]: 12.1 µM (inactive) | GI50 [41]: 15.3 µM (inactive) | GI50 [42]: 17.3 µM (inactive) | GI50 [43]: 27.4 µM (inactive) | GI50 [44]: 13.9 µM (inactive) | GI50 [45]: 18 µM (inactive) | GI50 [46]: 19 µM (inactive) | GI50 [47]: 17.7 µM (inactive) | GI50 [48]: 16.2 µM (inactive) | GI50 [49]: 15.1 µM (inactive) | GI50 [50]: 20 µM (inactive) | GI50 [51]: 2.61 µM (inactive) | GI50 [52]: 16.1 µM (inactive) | GI50 [53]: 12.9 µM (inactive) | GI50 [54]: 5.87 µM (inactive) | GI50 [55]: 14.5 µM (inactive) | GI50 [56]: 13.6 µM (inactive) | GI50 [57]: 15.1 µM (inactive) | GI50 [58]: 16.3 µM (inactive) | GI50 [59]: 7.62 µM (inactive)
